The target in this test is HPK1 (Homo sapiens (Human), UniProt Q92918). As to the kind of experiment: HPK1 biochemical enzyme assay (microfluidic mobility shift assay). Conditions: 1.5 nM HPK1, ATP 1 mM final, 30 min preincubation, 60 min at RT, Caliper EZ Reader; read-out: HPK1 1000UMATP caliper IC50. In outline: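 Ten-point compound titrations (top 3 μM final) preincubated 30 min with HPK1 and substrate, then reaction started with 1 mM ATP and 1 μM substrate, 5 mM MgCl2. After 60 min at RT, reaction terminated and product measured by microfluidic mobility shift.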
Chain of HPK1 (Q92918 whole entry): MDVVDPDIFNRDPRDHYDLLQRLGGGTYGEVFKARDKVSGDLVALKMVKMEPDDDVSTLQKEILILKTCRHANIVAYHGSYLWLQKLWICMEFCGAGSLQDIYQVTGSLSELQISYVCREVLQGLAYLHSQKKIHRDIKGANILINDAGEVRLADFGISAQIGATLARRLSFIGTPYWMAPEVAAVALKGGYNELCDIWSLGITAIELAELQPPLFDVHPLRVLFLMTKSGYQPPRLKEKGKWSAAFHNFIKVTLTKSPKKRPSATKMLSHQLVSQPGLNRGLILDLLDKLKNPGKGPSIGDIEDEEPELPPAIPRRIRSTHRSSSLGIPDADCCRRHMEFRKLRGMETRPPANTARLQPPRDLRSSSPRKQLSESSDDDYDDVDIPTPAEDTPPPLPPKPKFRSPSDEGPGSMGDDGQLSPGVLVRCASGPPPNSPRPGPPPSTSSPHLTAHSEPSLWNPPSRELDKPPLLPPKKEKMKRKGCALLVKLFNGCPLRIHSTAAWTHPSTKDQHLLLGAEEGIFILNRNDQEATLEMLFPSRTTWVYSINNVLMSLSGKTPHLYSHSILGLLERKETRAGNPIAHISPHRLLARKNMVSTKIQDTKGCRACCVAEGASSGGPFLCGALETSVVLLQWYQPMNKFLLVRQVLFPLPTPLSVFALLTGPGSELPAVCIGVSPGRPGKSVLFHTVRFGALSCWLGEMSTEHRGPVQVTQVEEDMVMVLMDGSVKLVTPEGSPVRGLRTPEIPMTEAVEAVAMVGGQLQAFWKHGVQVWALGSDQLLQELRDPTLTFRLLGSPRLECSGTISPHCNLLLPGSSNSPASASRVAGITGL
Usually IC50 stands for the concentration that inhibits the measured activity by half. `COC[C@H]1CN(c2ccc(Nc3cnc(-c4ccnc5c4ccn5C)c4c3C(=O)NC4)nc2)CC[C@H]1O` [I-423, 7-((5-((3R,4R)-4-hydroxy-3-(methoxymeth-yl)piperidin-1-yl)pyridin-2-yl)amino)-4-(1-methyl-l H-4-pyrrolo[2,3-b]pyridin-4-yl)-2,3-dihydro-1H-pyrrolo[3,4-c]pyridin-1-one]: the IC50 is less than 100 nM.

For `Cn1ccc2c(-c3ccc(Nc4ncc(N5CCC(O)CC5)cc4F)c4c3CNC4=O)ccnc21` [I-424, 7-((3-fluoro-5-(4-hydroxy-piperidin-1-yl)pyridin-2-yl)amino)-4-(1-methyl-1H-pyrrolo[2,3-b]pyridin-4-yl)isoindolin-1-one], the half-inhibitory concentration (IC50) was less than 100 nM.

In the case of `CN(C)Cc1nc(Nc2ccc(-c3cnc4cc(F)ccn34)c3c2C(=O)NC3)ccc1N1CCC[C@@H](C(C)(C)O)C1` [I-745, (R)-7-((6-((dimethylamino)-methyl)-5-(3-(2-hydroxypropan-2-yl)piperidin-1-yl)pyridin-2-yl)amino)-4-(7-fluoroimidazo [1,2-a]pyridin-3-yl)isoindolin-1-one], the IC50 is less than 100 nM.

With `CC(C)(O)[C@@H]1CN(c2ccc(Nc3ccc(-c4cnc5cccnn45)c4c3C(=O)NC4)nc2)CCO1` [I-474, 7-[[5-[(2S)-2-(1-hydroxy-1-methyl-ethyl)morpholin-4-yl]-2-pyridyl]amino]4-imidazo[1,2-b]pyridazin-3-yl-isoindolin-1-one], the IC50 is less than 100 nM.

With `CN1CCN(c2ccc(Nc3cnc(-c4cnc5c(F)cccn45)c4c3C(=O)NC4)nc2)C[C@H]1C(C)(C)O` (stereo in doubt) [I-621, (R]-4-(8-fluoroimidazo [1,2-a]pyridin-3-yl)-7-((5-(3-(2-hydroxypropan-2-yl)-4-methylpiperazin-1-yl)pyridin-2-yl)amino)-2.3-dihydro-1H-pyrrolo[3,4-c]pyridin-1-one], the 50% inhibitory concentration (IC50) was less than 100 nM.

As to `CC(C)(C)NCc1nc(Nc2ccc(-c3cnc4cc(F)ccn34)c3c2C(=O)NC3)ccc1C1CCOC1` (stereo not shown) [I-848, 7-[[6-[(tert-butylamino)methyl]-5-tetrahydrofuran-3-yl-2-pyridyl]amino]-4-(7-fluoroimidazo [1,2-a]pyridin-3-yl)isoindolin-1-one], the half-maximal inhibitory concentration (IC50) was less than 100 nM.

For the molecule `CN1CCN(c2ccc(Nc3cnc(-c4ccnc5[nH]ccc45)c4c3C(=O)NC4)nc2)CC1` [I-20, 7-[[5-(4-methylpiperazin-1-yl)-2-pyridyl]amino]-4-(1H-pyrrolo[2,3-b]pyridin-4-yl)-2,3-dihydropyrrolo [3,4-c]pyridin-1-one], the IC50 is less than 100 nM.

On to `CC1(N2CCOCC2)CCN(c2ccc(Nc3ccc(-c4cnc5cc(F)ccn45)c4c3C(=O)NC4)nc2)CC1` [I-429, 4-(7-fluoroimidazo [1,2-a]pyridin-3-yl)-7-((5-(4-methyl-4-morpholinopip-eridin-1-yl)pyridin-2-yl)amino)isoin-dolin-1-one], for which the concentration for half-maximal inhibition (IC50) is less than 100 nM.

Take `O=C1NCc2c(-c3cnc4c(F)cccn34)ncc(Nc3ccc(N4CC[C@H](F)[C@H](O)C4)cn3)c21` [I-658, 7-((5-((3R,4S]-4-fluoro-3-hydroxy-piperidin-1-yl)pyridin-2-yl)amino)-4-(8-fluoroimidazo [1,2-a]pyridin-3-yl)-2,3-dihydro-1H-pyrrolo[3,4-c]pyridin-1-one]: the 50% inhibitory concentration (IC50) was less than 100 nM.

For `CN1C[C@H](c2ccc(Nc3ccc(-c4cnc5cnccn45)c4c3C(=O)NC4)nc2)CCC1=O` [I-326, (S)-4-(imidazo[1,2-a]pyrazin-3-yl)-7-((5-(1-methyl-6-oxopiperidin-3-yl)pyridin-2-yl)amino)isoin-dolin-1-one], the half-inhibitory concentration (IC50) was less than 100 nM.

For `Cn1ccc2c(-c3ccc(-n4ccc(N5CCC[C@](C)(O)C5)n4)c4c3CNC4=O)ccnc21` (single isomer, unassigned) [I-306], the IC50 is greater than 1000 nM.

As to `O=C1NCc2c(-c3cnc4c(C(F)(F)F)cccn34)ccc(Nc3ccc(N4CCC(O)CC4)cn3)c21` [I-149], the IC50 was less than 100 nM.

`CN1CCOc2c(-c3ccc(Nc4ccc(N5CCNCC5)cn4)c4c3CNC4=O)ccnc21` [I-105, 4-(4-methyl-2,3-dihydropyrido [3,2-b][1.4]oxazin-8-yl)-7-[(5-piperazin-1-yl-2-pyridyl)amino] isoindolin-1-one]: the half-maximal inhibitory concentration (IC50) was less than 100 nM.

Take `Cn1ccc2c(-c3ncc(Nc4cccc(N5C[C@H](N)CC5=O)n4)c4c3CNC4=O)ccnc21` [I-691, (R)-7-((6-(4-amino-2-oxopyrrolidin-1-yl)pyridin-2-yl)amino)-4-(1-methyl-1H-pyrrolo[2,3-b]pyridin-4-yl)-2,3-dihydro-1H-pyrrolo[3,4-c]pyridin-1-one]: the IC50 was less than 100 nM.

On to `Cn1ccc2c(-c3ncc(Nc4cccc(N5C[C@@H](N)CC5=O)n4)c4c3CNC4=O)ccnc21` [I-692, (S)-7-((6-(4-amino-2-oxopyrrolidin-1-yl)pyridin-2-yl)amino)-4-(1-methyl-1H-pyrrolo[2,3-b]pyridin-4-yl)-2,3-dihydro-1H-pyrrolo[3,4-c]pyridin-1-one], for which the concentration for half-maximal inhibition (IC50) is less than 100 nM.

Turning to `CN(C)Cc1nc(Nc2ccc(-c3cnc4cnccn34)c3c2C(=O)NC3)ccc1[C@@H]1CCOC1` [I-714, (S)-7-((6-((dimethylamino)-methyl)-5-(tetrahydrofuran-3-yl)pyridin-2-yl)amino)-4-(imidazo[1,2-a]pyrazin-3-yl)isoindolin-1-one], the IC50 was less than 100 nM.

As for `CN1CCN(c2ccc(Nc3ccc(-c4ncnc5c4ccn5C)c4c3C(=O)NC4)nc2)CC1` [I-83, 7-[[5-(4-methylpiperazin-1-yl)-2-pyridyl]amino]-4-(7-methylpyrrolo [2,3-d]pyrimidin-4-yl)isoindolin-1-one], the 50% inhibitory concentration (IC50) was less than 100 nM.

In the case of `CN1CCN(CC2(O)CCN(c3ccc(Nc4cnc(-c5ccnc6c5ccn6C)c5c4C(=O)NC5)nc3)CC2)CC1` [I-401, 7-((5-(4-hydroxy-4-((4-methylpiperazin-1-yl)methyl)piper-idin-1-yl)pyridin-2-yl)amino)-4-(1-methyl-1H-pyrrolo[2,3-b]pyridin-4-yl)-2,3-dihydro-1H-pyrrolo[3,4-c]pyridin-1-one], the IC50 was less than 100 nM.

Turning to `O=C1NCc2c(-c3cnn4ccccc34)ccc(Nc3ccc(N4CCC(O)CC4)cn3)c21` [I-131, 7-[[5-(4-hydroxy-1-piperidyl)-2-pyridyl]amino]-4-pyrazolo[1,5-a]pyridin-3-yl-isoindolin-1-one], the half-maximal inhibitory concentration (IC50) was less than 100 nM.

On to `COCC1(O)CCN(c2ccc(Nc3ccc(-c4ccnc5c4ccn5C)c4c3C(=O)NC4)nc2)CC1` [I-298, 7-((5-(4-hydroxy-4-(methoxymeth-yl)piperidin-1-yl)pyridin-2-yl)amino)-4-(1-methyl-1H-pyrrolo[2,3-b]pyridin-4-yl)isoindolin-1-one], for which the IC50 is less than 100 nM.

Consider `CN(Cc1nc(Nc2ccc(-c3cnc4cc(F)ccn34)c3c2C(=O)NC3)ccc1[C@@H]1CCOC1)CC(F)F` (single isomer, unassigned) [I-749], for which the IC50 is less than 100 nM.

With `O=C1NCc2c(-c3cnn4c3CCCCC4)ccc(Nc3ccc(N4CCC(O)CC4)cn3)c21` [I-283, 7-((5-(4-hydroxy-piperidin-1-yl)pyridin-2-yl)amino)-4-(5,6,7,8-tetrahydro-4H-pyrazolo[1,5-a]azepin-3-yl)isoindolin-1-one], the IC50 fell in the range of 100 to 1000 nM.

Source of the values: patent US11021481B2, “Substituted isoindolin-1-ones and 2,3-dihydro-1h-pyrrolo[3,4-c]pyridin-1-ones as HPK1 antagonists” (Nimbus Saturn, Inc., priority 2019, dated 2021).
